Results: US20260248774A1, “INHIBITORS OF BACTERIAL TYPE III SECRETION SYSTEM” (MICROBIOTIX, INC., priority 2022, published 2026)

Experiments:
CYP450 3A4 = CYP450 3A4 (Homo sapiens, UniProt P08684); experiment: Cytochrome P450 inhibition, CYP3A4 (Eurofins Panlabs panel); assay type: in vitro ADME; details: assayed at 10 μM
Experimental: (§1) Cytochrome P450 Inhibition.
(§2) Assessment of off-target effects of priority compounds. To assess potential off-target effects, we will evaluate prioritized hits validated by in vivo testing in the Eurofins Panlabs HitProfilingScreen+CYP450 assay panel, which is performed by Eurofins as a fee for service. The assay panel of consists of assays for 30 receptors and transporters plus the five major CYP450 enzymes (1A2, 2C19, 2C9, 2D6, 3A4).

[1] = molecular target: panel of human cytochrome P450s, receptors, and ion channels (Homo sapiens, UniProt P35408); details: assayed at 10 μM
Sequence of panel of human cytochrome P450s, receptors, and ion channels (Homo sapiens, UniProt P35408) (P35408 whole entry): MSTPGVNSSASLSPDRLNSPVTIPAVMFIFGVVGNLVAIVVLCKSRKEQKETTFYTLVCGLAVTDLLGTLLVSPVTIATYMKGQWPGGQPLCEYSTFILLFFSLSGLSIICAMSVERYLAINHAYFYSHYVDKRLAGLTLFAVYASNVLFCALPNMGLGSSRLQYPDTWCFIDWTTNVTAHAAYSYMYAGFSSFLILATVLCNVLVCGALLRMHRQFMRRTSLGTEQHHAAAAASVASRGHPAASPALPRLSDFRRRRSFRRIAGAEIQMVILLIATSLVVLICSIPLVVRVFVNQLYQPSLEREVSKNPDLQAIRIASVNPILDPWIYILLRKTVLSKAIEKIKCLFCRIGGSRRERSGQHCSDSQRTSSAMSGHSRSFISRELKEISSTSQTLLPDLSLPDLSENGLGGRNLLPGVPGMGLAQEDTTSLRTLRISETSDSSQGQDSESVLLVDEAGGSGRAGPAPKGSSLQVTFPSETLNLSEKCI

[2] = molecular target: panel of human cytochrome P450s, receptors, and ion channels (Homo sapiens, UniProt P08913); details: assayed at 10 μM
Sequence of panel of human cytochrome P450s, receptors, and ion channels (Homo sapiens, UniProt P08913) (P08913 whole entry): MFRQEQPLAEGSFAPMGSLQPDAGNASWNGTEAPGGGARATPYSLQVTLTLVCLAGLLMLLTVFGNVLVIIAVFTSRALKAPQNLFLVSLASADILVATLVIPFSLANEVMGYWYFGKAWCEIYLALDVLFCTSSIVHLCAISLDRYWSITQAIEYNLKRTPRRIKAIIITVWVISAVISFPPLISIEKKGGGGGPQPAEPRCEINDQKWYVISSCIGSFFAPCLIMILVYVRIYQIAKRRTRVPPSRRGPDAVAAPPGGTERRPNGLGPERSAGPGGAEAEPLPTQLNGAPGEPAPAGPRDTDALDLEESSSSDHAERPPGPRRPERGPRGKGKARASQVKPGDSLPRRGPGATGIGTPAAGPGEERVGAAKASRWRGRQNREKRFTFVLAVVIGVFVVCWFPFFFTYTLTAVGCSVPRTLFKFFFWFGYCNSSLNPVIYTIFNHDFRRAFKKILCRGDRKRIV

[3] = molecular target: panel of human cytochrome P450s, receptors, and ion channels (Homo sapiens, UniProt P14416); details: assayed at 10 μM
[4] = molecular target: panel of human cytochrome P450s, receptors, and ion channels (Homo sapiens, UniProt P23975); details: assayed at 10 μM
Sequence of panel of human cytochrome P450s, receptors, and ion channels (Homo sapiens, UniProt P23975) (P23975 whole entry): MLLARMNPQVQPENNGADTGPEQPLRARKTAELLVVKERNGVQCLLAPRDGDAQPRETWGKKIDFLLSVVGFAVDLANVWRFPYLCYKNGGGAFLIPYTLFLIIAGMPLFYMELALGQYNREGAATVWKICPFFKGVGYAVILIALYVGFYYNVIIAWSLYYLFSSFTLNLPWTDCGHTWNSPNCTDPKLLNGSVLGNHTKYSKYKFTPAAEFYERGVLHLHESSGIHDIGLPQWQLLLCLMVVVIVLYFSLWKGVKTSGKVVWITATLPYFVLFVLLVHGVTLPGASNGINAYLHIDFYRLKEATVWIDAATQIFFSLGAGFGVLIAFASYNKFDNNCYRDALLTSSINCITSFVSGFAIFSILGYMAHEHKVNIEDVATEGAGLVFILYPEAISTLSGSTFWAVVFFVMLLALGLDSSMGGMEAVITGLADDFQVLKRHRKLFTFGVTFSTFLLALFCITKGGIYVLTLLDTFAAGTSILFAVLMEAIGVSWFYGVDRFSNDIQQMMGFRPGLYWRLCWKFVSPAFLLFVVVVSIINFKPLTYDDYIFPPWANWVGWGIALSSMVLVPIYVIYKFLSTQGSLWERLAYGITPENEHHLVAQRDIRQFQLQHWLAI

[5] = molecular target: panel of human cytochrome P450s, receptors, and ion channels (Homo sapiens, UniProt P41595); details: assayed at 10 μM
Sequence of panel of human cytochrome P450s, receptors, and ion channels (Homo sapiens, UniProt P41595) (P41595 whole entry): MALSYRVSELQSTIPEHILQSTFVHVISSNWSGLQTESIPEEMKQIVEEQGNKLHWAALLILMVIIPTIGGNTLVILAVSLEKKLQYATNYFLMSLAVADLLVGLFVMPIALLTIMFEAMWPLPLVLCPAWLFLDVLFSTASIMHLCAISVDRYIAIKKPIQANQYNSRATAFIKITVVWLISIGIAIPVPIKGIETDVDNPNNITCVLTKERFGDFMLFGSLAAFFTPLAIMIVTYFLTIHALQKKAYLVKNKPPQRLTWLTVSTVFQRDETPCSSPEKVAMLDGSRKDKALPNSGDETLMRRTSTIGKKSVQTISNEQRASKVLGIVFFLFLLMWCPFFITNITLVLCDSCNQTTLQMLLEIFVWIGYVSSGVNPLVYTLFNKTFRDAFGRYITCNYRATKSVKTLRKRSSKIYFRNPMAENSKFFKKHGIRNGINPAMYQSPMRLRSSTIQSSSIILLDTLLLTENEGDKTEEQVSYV

[6] = molecular target: panel of human cytochrome P450s, receptors, and ion channels (Homo sapiens, UniProt P30542); details: assayed at 10 μM
[7] = molecular target: panel of human cytochrome P450s, receptors, and ion channels (Homo sapiens, UniProt P35367); details: assayed at 10 μM
[8] = molecular target: panel of human cytochrome P450s, receptors, and ion channels (Homo sapiens, UniProt P20309); details: assayed at 10 μM
[9] = molecular target: panel of human cytochrome P450s, receptors, and ion channels (Homo sapiens, UniProt P29274); details: assayed at 10 μM
[10] = molecular target: panel of human cytochrome P450s, receptors, and ion channels (Homo sapiens, UniProt P35372); details: assayed at 10 μM
[11] = molecular target: panel of human cytochrome P450s, receptors, and ion channels (Homo sapiens, UniProt P02708); details: assayed at 10 μM
[12] = molecular target: panel of human cytochrome P450s, receptors, and ion channels (Rattus norvegicus, UniProt P43140); details: assayed at 10 μM
[13] = molecular target: panel of human cytochrome P450s, receptors, and ion channels (Homo sapiens, UniProt P07550); details: assayed at 10 μM
Sequence of panel of human cytochrome P450s, receptors, and ion channels (Homo sapiens, UniProt P07550) (P07550 whole entry): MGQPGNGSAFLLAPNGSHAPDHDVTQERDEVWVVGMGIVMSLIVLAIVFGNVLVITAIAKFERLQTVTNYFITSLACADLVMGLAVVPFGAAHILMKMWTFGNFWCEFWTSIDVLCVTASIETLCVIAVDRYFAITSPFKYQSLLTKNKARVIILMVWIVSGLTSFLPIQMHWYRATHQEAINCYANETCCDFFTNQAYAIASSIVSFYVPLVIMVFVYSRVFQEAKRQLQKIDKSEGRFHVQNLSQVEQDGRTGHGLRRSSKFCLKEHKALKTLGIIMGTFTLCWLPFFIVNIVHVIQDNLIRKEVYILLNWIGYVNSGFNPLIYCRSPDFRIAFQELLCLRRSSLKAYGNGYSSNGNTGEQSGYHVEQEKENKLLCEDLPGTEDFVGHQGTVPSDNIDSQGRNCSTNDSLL

[14] = system: panel of human cytochrome P450s, receptors, and ion channels
[15] = molecular target: panel of human cytochrome P450s, receptors, and ion channels (Homo sapiens, UniProt Q99720); details: assayed at 10 μM
Sequence of panel of human cytochrome P450s, receptors, and ion channels (Homo sapiens, UniProt Q99720) (Q99720 whole entry): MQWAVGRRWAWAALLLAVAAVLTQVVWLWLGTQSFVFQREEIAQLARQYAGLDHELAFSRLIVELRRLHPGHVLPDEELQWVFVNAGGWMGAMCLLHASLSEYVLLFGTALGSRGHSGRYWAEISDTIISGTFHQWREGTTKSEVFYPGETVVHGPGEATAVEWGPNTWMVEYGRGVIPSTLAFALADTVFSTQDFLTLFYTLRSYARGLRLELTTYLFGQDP

[16] = molecular target: panel of human cytochrome P450s, receptors, and ion channels (Homo sapiens, UniProt P21728); details: assayed at 10 μM
Sequence of panel of human cytochrome P450s, receptors, and ion channels (Homo sapiens, UniProt P21728) (P21728 whole entry): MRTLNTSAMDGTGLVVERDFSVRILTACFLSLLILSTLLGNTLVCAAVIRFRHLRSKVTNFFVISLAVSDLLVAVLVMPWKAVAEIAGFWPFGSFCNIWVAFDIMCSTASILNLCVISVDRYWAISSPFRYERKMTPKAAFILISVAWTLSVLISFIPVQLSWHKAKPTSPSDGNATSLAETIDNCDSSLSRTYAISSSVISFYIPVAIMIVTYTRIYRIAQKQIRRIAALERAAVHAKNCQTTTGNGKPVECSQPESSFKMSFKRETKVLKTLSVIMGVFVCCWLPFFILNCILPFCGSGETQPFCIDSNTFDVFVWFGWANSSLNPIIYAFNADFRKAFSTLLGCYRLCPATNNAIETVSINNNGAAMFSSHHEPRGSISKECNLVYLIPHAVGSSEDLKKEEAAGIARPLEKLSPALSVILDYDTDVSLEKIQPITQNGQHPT

[17] = molecular target: panel of human cytochrome P450s, receptors, and ion channels (Rattus norvegicus, UniProt P15823); details: assayed at 10 μM
Sequence of panel of human cytochrome P450s, receptors, and ion channels (Rattus norvegicus, UniProt P15823) (P15823 whole entry): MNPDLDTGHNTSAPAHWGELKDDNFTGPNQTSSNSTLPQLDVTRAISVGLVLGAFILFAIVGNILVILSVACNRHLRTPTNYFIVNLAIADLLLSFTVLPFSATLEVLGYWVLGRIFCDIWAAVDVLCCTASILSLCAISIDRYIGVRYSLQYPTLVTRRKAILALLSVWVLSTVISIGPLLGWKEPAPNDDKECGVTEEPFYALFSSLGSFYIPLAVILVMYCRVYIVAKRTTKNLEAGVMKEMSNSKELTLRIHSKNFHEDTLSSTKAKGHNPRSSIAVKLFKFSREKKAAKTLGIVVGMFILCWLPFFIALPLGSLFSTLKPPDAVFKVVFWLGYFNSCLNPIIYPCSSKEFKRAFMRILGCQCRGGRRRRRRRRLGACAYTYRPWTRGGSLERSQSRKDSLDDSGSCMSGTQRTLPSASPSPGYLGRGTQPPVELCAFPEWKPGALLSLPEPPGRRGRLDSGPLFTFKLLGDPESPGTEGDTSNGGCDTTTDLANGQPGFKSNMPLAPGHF

[18] = molecular target: panel of human cytochrome P450s, receptors, and ion channels (Homo sapiens, UniProt P21554); details: assayed at 10 μM
[19] = molecular target: panel of human cytochrome P450s, receptors, and ion channels (Homo sapiens, UniProt P08172); details: assayed at 10 μM
[20] = molecular target: panel of human cytochrome P450s, receptors, and ion channels (Homo sapiens, UniProt P08588); details: assayed at 10 μM
[21] = system: panel of human cytochrome P450s (1A2, 2C19, 2C9, 2D6, 3A4), receptors, transporters and ion channels; experiment: in vitro
hERG = hERG (Homo sapiens, UniProt Q12809); experiment: hERG inhibition
Sequence of hERG (Q12809 whole entry): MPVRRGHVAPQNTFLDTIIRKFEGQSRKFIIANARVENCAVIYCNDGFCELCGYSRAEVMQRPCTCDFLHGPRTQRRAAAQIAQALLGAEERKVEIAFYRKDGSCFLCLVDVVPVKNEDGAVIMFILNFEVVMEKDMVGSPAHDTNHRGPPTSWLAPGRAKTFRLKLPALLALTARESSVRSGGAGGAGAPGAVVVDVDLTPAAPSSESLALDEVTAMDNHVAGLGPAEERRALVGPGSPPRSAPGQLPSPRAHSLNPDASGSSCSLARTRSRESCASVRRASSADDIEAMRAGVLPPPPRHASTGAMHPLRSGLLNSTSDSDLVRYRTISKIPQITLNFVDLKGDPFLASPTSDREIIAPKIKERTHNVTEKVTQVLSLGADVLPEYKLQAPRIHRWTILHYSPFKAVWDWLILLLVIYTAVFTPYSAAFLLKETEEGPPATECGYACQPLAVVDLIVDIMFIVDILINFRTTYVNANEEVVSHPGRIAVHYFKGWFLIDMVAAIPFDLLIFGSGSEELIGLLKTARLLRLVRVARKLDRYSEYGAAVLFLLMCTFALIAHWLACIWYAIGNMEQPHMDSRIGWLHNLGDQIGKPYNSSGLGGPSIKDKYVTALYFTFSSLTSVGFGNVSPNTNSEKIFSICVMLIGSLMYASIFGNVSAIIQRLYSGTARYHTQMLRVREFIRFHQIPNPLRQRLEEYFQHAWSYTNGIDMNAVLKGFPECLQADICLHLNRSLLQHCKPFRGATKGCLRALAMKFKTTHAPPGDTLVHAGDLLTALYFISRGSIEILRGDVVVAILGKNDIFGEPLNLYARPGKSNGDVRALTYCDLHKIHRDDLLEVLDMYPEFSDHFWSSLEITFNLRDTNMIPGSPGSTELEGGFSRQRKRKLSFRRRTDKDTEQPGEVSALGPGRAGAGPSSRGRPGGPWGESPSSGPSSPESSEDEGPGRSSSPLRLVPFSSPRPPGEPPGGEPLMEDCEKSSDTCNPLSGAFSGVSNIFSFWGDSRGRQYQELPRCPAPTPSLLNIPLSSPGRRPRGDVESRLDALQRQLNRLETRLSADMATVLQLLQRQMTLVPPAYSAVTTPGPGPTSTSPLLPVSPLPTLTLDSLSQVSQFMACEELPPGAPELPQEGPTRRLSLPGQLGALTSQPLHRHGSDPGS

CYP450 2C19 = CYP450 2C19 (Homo sapiens, UniProt P33261); experiment: Cytochrome P450 inhibition, CYP2C19 (Eurofins Panlabs panel); assay type: in vitro ADME; details: assayed at 10 μM
Experimental: as §1, §2

[22] = Kinetic aqueous solubility (nephelometric assay); assay type: physicochemical; details: Table 1
Description: Solubility. The maximum aqueous solubility of analogs will be initially determined by nephelometry using a published method (44).

CYP450 2D6 = CYP450 2D6 (Homo sapiens, UniProt P10635); experiment: Cytochrome P450 inhibition, CYP2D6 (Eurofins Panlabs panel); assay type: in vitro ADME; details: assayed at 10 μM
Experimental: as §1, §2

CCC(Oc1ccc(Cl)c(Cl)c1Cl)C(=O)NCc1ccc(F)cc1 (stereo not shown) [MBX-4532]
CYP450, 3A4 (CYP450 3A4): 13 | Prostanoid EP4 [1]: −6 | Adrenergic α2A [2]: 23 | Dopamine D2S [3]: 11 | Transporter, Norepinephrine (NET) [4]: 61 | Serotonin (5-Hydroxytryptamine) 5-HT2B [5]: 59 | Adenosine A1 [6]: 15 | Histamine H1 [7]: 23 | Muscarinic M3 [8]: 8 | Adenosine A2A [9]: 10 | Opiate μ (OP3, MOP) [10]: 26 | Nicotinic Acetylcholine α1, Bungarotoxin [11]: −17 | Adrenergic α1A [12]: 12 | Adrenergic β2 [13]: 14 | Calcium Channel L-Type, Dihydropyridine ([14]; assayed at 10 μM): 56 | GABAA, Flunitrazepam, Central ([14]; assayed at 10 μM): −1 | GABAA, Muscimol, Central ([14]; assayed at 10 μM): 2 | Glutamate, NMDA, Phencyclidine ([14]; assayed at 10 μM): 29 | Imidazoline I2, Central ([14]; assayed at 10 μM): 27 | Nicotinic Acetylcholine αβ4 ([14]; assayed at 10 μM): 7 | Phorbol Ester ([14]; assayed at 10 μM): 5 | Potassium Channel [KATP] ([14]; assayed at 10 μM): 0 | Rolipram ([14]; assayed at 10 μM): 23 | Sodium Channel, Site 2 ([14]; assayed at 10 μM): 39 | specificity vs mammalian receptors and enzymes, including hERG ([14]; assessment in text): not specific enough | Sigma σ1 [15]: 70 | Dopamine D1 [16]: 0 | Adrenergic α1B [17]: 6 | Cannabinoid CB1 [18]: 16 | Muscarinic M2 [19]: 23 | Adrenergic β1 [20]: 2 | inhibition at 10 µM [21]: > 50% | IC50 (hERG; Table 1, read-out: hERG INH IC50): > 100 µM | Potassium Channel hERG (hERG; assayed at 10 μM): 26 | CYP450, 2C19 (CYP450 2C19): 80 | Sol [22]: 25 µM | CYP450, 2D6 (CYP450 2D6): 0
